Assay results taken from ChEMBL document CHEMBL1201862, “PubChem BioAssay data set” (2004).
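Five compound concentrations were applied to cells in 96-well plates for 48 hours; endpoints were derived by simple linear interpolation of the resulting dose-response curve. GI50 = concentration required for 50% inhibition of growth.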 Active and inactive are the calls of the source. Rule as the data show it: active = GI50 up to about 1.1 µM and inactive = higher.

Key:
Experiment in all cases: NCI-60 cell line screen, 48 h
[1] = tested on: A498
[2] = tested on: SK-MEL-2
[3] = tested on: HCT-116
[4] = tested on: NCI-H460
[5] = tested on: DU-145
[6] = tested on: OVCAR-5
[7] = tested on: IGROV-1
[8] = tested on: MDA-N
[9] = tested on: PC-3
[10] = tested on: U-251
[11] = tested on: HCT-15
[12] = tested on: K562
[13] = tested on: NCI-H23
[14] = tested on: OVCAR-3
[15] = tested on: MOLT-4
[16] = tested on: RXF 393
[17] = tested on: Malme-3M
[18] = tested on: BT-549
[19] = tested on: NCI-H226
[20] = tested on: LOX IMVI

Compound: Cc1c(O)c(OC2OC(CO)C(O)C(O)C2O)cc2c1CC[C@@H]1C2(C)C(=O)C[C@]2(C)[C@@H]([C@@](C)(O)C(=O)CCC(C)(C)O)[C@H](O)C[C@@]12C (stereo not given in full)
- GI50 [1]: > 100 µM (inactive)
- GI50 [2]: > 100 µM (inactive)
- GI50 [3]: > 100 µM (inactive)
- GI50 [4]: > 100 µM (inactive)
- GI50 [5]: > 100 µM (inactive)
- GI50 [6]: > 100 µM (inactive)
- GI50 [7]: > 100 µM (inactive)
- GI50 [8]: > 100 µM (inactive)
- GI50 [9]: > 100 µM (inactive)
- GI50 [10]: > 100 µM (inactive)
- GI50 [11]: > 100 µM
- GI50 [12]: > 100 µM (inactive)
- GI50 [13]: > 100 µM (inactive)
- GI50 [14]: > 100 µM (inactive)
- GI50 [15]: > 100 µM (inactive)
- GI50 [16]: > 100 µM (inactive)
- GI50 [17]: > 100 µM (inactive)
- GI50 [18]: > 100 µM (inactive)
- GI50 [19]: > 100 µM (inactive)

Compound: COc1cc2c(cc1C[N+](C)(C)CSc1ccccc1)-c1ccccc1CC2
- GI50 [1]: 18.5 µM (inactive)
- GI50 [2]: 2 µM (inactive)
- GI50 [3]: 2.24 µM (inactive)
- GI50 [4]: 3.29 µM (inactive)
- GI50 [5]: 8.61 µM (inactive)
- GI50 [6]: 12 µM (inactive)
- GI50 [7]: 2.47 µM (inactive)
- GI50 [8]: 1.77 µM (inactive)
- GI50 [9]: 2.61 µM (inactive)
- GI50 [10]: 4.14 µM (inactive)
- GI50 [11]: 16.5 µM
- GI50 [12]: 2.18 µM (inactive)
- GI50 [13]: 3.76 µM (inactive)
- GI50 [14]: 2.29 µM (inactive)
- GI50 [15]: 2.33 µM (inactive)
- GI50 [16]: 6.53 µM (inactive)
- GI50 [20]: 4 µM (inactive)
- GI50 [17]: 1.71 µM (inactive)
- GI50 [18]: 3.89 µM (inactive)
- GI50 [19]: 9.02 µM (inactive)

Compound: NCCCC(N)C(=O)O (stereo not given)
- GI50 [1]: > 100 µM (inactive)
- GI50 [2]: > 100 µM (inactive)
- GI50 [3]: > 100 µM (inactive)
- GI50 [4]: > 100 µM (inactive)
- GI50 [5]: > 100 µM (inactive)
- GI50 [6]: > 100 µM (inactive)
- GI50 [7]: > 100 µM (inactive)
- GI50 [8]: > 100 µM (inactive)
- GI50 [9]: > 100 µM (inactive)
- GI50 [10]: > 100 µM (inactive)
- GI50 [11]: > 100 µM
- GI50 [12]: > 100 µM (inactive)
- GI50 [13]: > 100 µM (inactive)
- GI50 [14]: > 100 µM (inactive)
- GI50 [15]: > 100 µM (inactive)
- GI50 [16]: > 100 µM (inactive)
- GI50 [20]: > 100 µM (inactive)
- GI50 [17]: > 100 µM (inactive)
- GI50 [18]: > 100 µM (inactive)
- GI50 [19]: 77.8 µM (inactive)

Compound: CC1OC1P(=O)(O)O (stereo not given)
- GI50 [1]: > 100 µM (inactive)
- GI50 [2]: > 100 µM (inactive)
- GI50 [3]: > 100 µM (inactive)
- GI50 [4]: > 100 µM (inactive)
- GI50 [5]: > 100 µM (inactive)
- GI50 [6]: 26.3 µM (inactive)
- GI50 [7]: > 100 µM (inactive)
- GI50 [8]: > 100 µM (inactive)
- GI50 [9]: > 100 µM (inactive)
- GI50 [10]: > 100 µM (inactive)
- GI50 [11]: > 100 µM
- GI50 [12]: > 100 µM (inactive)
- GI50 [13]: > 100 µM (inactive)
- GI50 [14]: > 100 µM (inactive)
- GI50 [15]: > 100 µM (inactive)
- GI50 [16]: > 100 µM (inactive)
- GI50 [20]: > 100 µM (inactive)
- GI50 [18]: > 100 µM (inactive)

Compound: Cc1ccc(C2=CC(=O)OC(C[P+](c3ccccc3)(c3ccccc3)c3ccccc3)(c3ccccc3)O2)cc1 (stereo not given)
- GI50 [1]: 15.1 µM (inactive)
- GI50 [2]: 15.2 µM (inactive)
- GI50 [3]: 14.5 µM (inactive)
- GI50 [4]: 17.8 µM (inactive)
- GI50 [5]: 16.5 µM (inactive)
- GI50 [6]: 23.2 µM (inactive)
- GI50 [7]: 13.7 µM (inactive)
- GI50 [8]: 14.7 µM (inactive)
- GI50 [9]: 23.1 µM (inactive)
- GI50 [10]: 17.9 µM (inactive)
- GI50 [11]: 20 µM
- GI50 [12]: 23.3 µM (inactive)
- GI50 [13]: 13.6 µM (inactive)
- GI50 [14]: 16.4 µM (inactive)
- GI50 [15]: 21.3 µM (inactive)
- GI50 [16]: 16.7 µM (inactive)
- GI50 [17]: 16.1 µM (inactive)
- GI50 [18]: 26.7 µM (inactive)
- GI50 [19]: 27.1 µM (inactive)

Compound: N#CC(C#N)=C1CCCS(=O)(=O)c2ccccc21
- GI50 [1]: 56.4 µM (inactive)
- GI50 [2]: > 100 µM (inactive)
- GI50 [3]: > 100 µM (inactive)
- GI50 [4]: > 100 µM (inactive)
- GI50 [5]: > 100 µM (inactive)
- GI50 [6]: > 100 µM (inactive)
- GI50 [7]: > 100 µM (inactive)
- GI50 [8]: > 100 µM (inactive)
- GI50 [9]: > 100 µM (inactive)
- GI50 [10]: > 100 µM (inactive)
- GI50 [11]: > 100 µM
- GI50 [12]: > 100 µM (inactive)
- GI50 [13]: > 100 µM (inactive)
- GI50 [14]: > 100 µM (inactive)
- GI50 [15]: > 100 µM (inactive)
- GI50 [16]: > 100 µM (inactive)
- GI50 [20]: > 100 µM (inactive)
- GI50 [18]: > 100 µM (inactive)
- GI50 [19]: > 100 µM (inactive)

Compound: Cc1cccc(-n2c(C)nc3ccc(NC(=S)Nc4ccccc4)cc3c2=O)c1
- GI50 [1]: > 100 µM (inactive)
- GI50 [2]: 39 µM (inactive)
- GI50 [3]: 46.5 µM (inactive)
- GI50 [4]: 11 µM (inactive)
- GI50 [5]: 87.7 µM (inactive)
- GI50 [6]: > 100 µM (inactive)
- GI50 [7]: > 100 µM (inactive)
- GI50 [8]: 55.6 µM (inactive)
- GI50 [9]: 41.6 µM (inactive)
- GI50 [10]: > 100 µM (inactive)
- GI50 [11]: 68.5 µM
- GI50 [12]: 50.1 µM (inactive)
- GI50 [13]: 64.9 µM (inactive)
- GI50 [14]: 32.4 µM (inactive)
- GI50 [15]: 28.4 µM (inactive)
- GI50 [16]: 62.4 µM (inactive)
- GI50 [20]: 37.2 µM (inactive)
- GI50 [17]: 69.2 µM (inactive)
- GI50 [18]: 48.5 µM (inactive)
- GI50 [19]: 81.1 µM (inactive)
